Experimental data reported in PMC6688997 (Nature Communications, 2019).
“Also recorded” adds a separate entry of the source. Where two headings read alike, the source gives them in different places.

Columns and labels:
[1] = system: Ba/F3-CD74-ROS1 L1951R cells; assay: CellTiter-Glo cell viability assay; assay type: cell-based, murine; conditions: for IC50: 72 h
[2] = system: Ba/F3 TPM3-NTRK1 G595R cells; assay: CellTiter-Glo cell viability assay; assay type: cell-based, murine
[3] = system: U-118 MG xenograft (FIG-ROS1); assay type: in vivo, mouse; conditions: for Tumor volume (group average): U-118 MG xenograft
[4] = molecular target: T1, ALK (Homo sapiens, UniProt Q9UM73); assay: Kinase assay, ATP Km; assay type: biochemical
T1 construct: purchased Carna Biosciences, Inc. (Kobe, Japan); assay run by the vendor
T1 sequence (Q9UM73 19-1620): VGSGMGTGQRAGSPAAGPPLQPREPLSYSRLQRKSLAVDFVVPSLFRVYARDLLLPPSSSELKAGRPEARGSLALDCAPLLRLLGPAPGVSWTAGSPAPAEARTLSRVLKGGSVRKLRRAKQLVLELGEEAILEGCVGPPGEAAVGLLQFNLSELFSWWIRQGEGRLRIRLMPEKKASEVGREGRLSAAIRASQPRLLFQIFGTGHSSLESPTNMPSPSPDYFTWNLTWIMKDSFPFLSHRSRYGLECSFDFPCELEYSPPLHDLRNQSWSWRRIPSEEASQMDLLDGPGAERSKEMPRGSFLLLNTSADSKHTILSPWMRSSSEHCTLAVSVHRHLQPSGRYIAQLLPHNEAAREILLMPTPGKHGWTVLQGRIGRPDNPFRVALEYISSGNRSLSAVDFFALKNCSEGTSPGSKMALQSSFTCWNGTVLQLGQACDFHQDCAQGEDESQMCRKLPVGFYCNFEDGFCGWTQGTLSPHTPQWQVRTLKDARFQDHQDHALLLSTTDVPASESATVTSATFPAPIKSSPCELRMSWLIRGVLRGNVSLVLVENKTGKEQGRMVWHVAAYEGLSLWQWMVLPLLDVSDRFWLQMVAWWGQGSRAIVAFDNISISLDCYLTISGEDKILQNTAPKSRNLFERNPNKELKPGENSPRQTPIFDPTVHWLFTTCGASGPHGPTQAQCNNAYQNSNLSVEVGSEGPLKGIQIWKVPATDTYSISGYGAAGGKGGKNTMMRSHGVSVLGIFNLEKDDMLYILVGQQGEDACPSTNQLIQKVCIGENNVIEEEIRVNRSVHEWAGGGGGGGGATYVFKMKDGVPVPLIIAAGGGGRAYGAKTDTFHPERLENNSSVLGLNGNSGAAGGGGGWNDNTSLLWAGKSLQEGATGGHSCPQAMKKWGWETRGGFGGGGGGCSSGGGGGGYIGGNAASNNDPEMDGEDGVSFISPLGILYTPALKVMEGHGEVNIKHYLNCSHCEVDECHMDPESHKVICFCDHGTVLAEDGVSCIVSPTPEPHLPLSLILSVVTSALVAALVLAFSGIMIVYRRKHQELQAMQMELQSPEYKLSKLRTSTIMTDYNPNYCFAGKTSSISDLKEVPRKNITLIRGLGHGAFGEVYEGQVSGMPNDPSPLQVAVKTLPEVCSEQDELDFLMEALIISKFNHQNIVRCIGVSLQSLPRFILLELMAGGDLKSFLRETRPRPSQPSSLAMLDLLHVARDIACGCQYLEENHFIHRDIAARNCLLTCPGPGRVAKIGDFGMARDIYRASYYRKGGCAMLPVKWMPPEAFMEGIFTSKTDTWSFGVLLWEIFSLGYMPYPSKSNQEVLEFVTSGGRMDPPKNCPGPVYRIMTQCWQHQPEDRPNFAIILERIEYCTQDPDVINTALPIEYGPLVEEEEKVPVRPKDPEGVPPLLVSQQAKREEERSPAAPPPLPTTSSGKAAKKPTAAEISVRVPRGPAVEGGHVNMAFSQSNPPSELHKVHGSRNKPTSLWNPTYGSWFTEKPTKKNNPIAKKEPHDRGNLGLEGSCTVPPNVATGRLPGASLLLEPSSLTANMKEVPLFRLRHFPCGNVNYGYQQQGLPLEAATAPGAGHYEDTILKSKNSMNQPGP

[5] = molecular target: T2, FGFR1 (Homo sapiens, UniProt P11362); assay: Kinase assay, ATP Km; assay type: biochemical
T2 construct: purchased Carna Biosciences
T2 sequence (P11362 22-822): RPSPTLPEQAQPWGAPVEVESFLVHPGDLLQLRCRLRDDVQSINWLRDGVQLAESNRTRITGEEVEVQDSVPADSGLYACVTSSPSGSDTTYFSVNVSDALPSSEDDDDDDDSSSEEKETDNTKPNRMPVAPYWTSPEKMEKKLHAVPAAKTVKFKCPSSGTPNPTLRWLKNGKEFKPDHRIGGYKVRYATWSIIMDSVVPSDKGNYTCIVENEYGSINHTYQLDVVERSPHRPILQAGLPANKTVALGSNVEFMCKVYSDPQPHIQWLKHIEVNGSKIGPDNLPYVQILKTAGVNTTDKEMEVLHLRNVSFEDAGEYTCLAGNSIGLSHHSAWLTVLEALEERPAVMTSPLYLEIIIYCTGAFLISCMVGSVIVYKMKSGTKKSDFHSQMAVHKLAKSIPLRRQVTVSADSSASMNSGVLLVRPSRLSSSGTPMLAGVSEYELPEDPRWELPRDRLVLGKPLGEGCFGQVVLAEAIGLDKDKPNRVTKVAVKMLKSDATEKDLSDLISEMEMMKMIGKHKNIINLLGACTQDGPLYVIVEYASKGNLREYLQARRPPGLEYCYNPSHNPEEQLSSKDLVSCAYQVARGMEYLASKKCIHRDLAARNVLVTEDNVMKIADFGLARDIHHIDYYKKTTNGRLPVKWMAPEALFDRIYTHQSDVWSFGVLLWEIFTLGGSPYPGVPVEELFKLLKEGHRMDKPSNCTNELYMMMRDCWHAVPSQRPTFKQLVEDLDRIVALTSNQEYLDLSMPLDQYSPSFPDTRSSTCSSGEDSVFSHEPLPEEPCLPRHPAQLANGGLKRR

[6] = molecular target: T3, MST3 (Homo sapiens, UniProt Q9Y6E0); assay: Kinase assay, ATP Km; assay type: biochemical
T3 construct: purchased Carna Biosciences
T3 sequence (Q9Y6E0 whole entry): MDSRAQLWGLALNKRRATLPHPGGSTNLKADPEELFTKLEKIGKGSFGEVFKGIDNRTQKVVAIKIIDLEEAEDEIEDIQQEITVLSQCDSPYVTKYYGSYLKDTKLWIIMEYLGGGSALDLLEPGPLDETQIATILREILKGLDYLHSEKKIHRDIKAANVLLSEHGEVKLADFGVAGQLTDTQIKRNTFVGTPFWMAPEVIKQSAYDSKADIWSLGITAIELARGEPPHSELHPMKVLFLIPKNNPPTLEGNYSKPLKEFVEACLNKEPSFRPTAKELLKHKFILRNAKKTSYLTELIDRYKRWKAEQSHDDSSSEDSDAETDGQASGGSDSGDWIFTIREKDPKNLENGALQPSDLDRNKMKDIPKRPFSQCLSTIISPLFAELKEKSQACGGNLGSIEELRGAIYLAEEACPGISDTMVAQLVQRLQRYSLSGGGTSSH

[7] = molecular target: AMPKα1/β1/γ1 (Homo sapiens, UniProt Q13131); assay: Kinase assay, ATP Km; assay type: biochemical
AMPKα1/β1/γ1, sequence (Q13131 whole entry): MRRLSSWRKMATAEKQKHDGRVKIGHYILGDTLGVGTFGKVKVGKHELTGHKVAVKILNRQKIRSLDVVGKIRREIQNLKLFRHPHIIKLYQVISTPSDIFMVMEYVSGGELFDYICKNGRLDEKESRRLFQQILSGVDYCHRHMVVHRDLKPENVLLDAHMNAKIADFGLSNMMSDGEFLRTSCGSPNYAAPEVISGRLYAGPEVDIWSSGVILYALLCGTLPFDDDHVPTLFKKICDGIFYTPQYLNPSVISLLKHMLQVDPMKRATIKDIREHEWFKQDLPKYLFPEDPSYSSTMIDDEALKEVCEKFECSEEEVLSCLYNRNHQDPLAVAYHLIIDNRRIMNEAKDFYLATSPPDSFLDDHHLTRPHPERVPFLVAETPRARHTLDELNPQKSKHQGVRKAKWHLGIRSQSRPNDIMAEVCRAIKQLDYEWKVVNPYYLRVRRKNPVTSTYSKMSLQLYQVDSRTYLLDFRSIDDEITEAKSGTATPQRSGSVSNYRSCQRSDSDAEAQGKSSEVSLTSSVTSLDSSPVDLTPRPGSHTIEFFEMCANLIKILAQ
AMPKα1/β1/γ1, sequence (Q9Y478 whole entry partner): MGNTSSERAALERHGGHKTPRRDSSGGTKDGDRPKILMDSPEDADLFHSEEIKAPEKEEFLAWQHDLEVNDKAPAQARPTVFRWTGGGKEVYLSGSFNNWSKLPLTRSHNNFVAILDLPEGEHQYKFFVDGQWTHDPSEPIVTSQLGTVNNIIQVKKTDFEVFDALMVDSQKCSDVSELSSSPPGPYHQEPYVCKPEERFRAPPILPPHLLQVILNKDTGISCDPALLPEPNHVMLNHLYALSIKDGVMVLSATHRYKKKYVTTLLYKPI
AMPKα1/β1/γ1, sequence (P54619 whole entry partner): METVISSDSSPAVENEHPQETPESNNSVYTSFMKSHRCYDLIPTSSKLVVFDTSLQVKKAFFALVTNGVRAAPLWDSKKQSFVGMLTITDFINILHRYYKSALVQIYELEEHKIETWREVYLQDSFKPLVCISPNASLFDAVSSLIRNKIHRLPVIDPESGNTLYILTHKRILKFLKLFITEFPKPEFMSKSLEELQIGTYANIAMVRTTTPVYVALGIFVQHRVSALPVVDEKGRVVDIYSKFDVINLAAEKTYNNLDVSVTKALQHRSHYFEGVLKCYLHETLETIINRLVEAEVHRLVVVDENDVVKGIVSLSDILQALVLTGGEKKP

[8] = molecular target: T4, MNK2 (Homo sapiens, UniProt Q9HBH9); assay: Kinase assay, ATP Km; assay type: biochemical
T4 construct: purchased Carna Biosciences
T4 sequence (Q9HBH9 whole entry): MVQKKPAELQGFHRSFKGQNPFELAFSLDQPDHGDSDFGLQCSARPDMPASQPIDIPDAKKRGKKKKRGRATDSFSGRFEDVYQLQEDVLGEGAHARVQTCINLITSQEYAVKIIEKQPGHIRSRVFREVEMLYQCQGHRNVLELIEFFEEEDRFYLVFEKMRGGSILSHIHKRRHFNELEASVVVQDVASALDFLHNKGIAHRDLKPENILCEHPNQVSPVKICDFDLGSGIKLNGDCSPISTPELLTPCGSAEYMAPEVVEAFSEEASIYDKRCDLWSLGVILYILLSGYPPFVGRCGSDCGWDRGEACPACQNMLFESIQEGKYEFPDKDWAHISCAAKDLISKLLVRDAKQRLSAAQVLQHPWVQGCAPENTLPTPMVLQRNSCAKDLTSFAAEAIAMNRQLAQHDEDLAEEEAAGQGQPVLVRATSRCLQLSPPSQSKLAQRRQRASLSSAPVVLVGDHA

[9] = molecular target: PGK (Homo sapiens, UniProt Q13976); assay: Kinase assay, ATP Km; assay type: biochemical

C[C@@H](N)COc1ccc(-c2cnc3ccc(N[C@H](C)c4cccc(F)c4)nn23)cc1.O=C(O)CCCCC(=O)O [DS-6051b] was tested, and the IC50 [1] was “effectively inhibited the growth; also recorded: single-digit nanomolar”, the IC50 ([1]; Mus musculus, read-out: IC50) was 4.2 nM and the GI50 ([1]; Mus musculus, source data sheet) was 4.1 nM. It also gave an IC50 ([2]; 72 h) of under 100 nM, an IC50 ([2]; Mus musculus, BaF3, 72 h) of 85.6 nM and a Tumor volume (group average) ([3]; 25 mg/kg po, day 0) of 154 mm³. It also gave a Tumor volume (group average) ([3]; 25 mg/kg po, day 2) of 178 mm³, a Tumor volume (group average) ([3]; 25 mg/kg po, day 4) of 195 mm³ and a Tumor volume (group average) ([3]; 25 mg/kg po, day 7) of 175 mm³. For the same molecule, the Tumor volume (group average) ([3]; 25 mg/kg po, day 9) was 197 mm³, the Tumor volume (group average) ([3]; 25 mg/kg po, day 11) was 216 mm³ and the Tumor volume (group average) ([3]; 25 mg/kg po, day 14) was 208 mm³. For the same molecule, the Tumor volume (group average) ([3]; 25 mg/kg po, day 16) was 215 mm³, the Tumor volume (group average) ([3]; 25 mg/kg po, day 18) was 206 mm³ and the Tumor volume (group average) ([3]; 50 mg/kg po, day 0) was 150 mm³. It also gave a Tumor volume (group average) ([3]; 50 mg/kg po, day 2) of 158 mm³, a Tumor volume (group average) ([3]; 50 mg/kg po, day 4) of 175 mm³ and a Tumor volume (group average) ([3]; 50 mg/kg po, day 7) of 167 mm³. For the same molecule, the Tumor volume (group average) ([3]; 50 mg/kg po, day 9) was 183 mm³, the Tumor volume (group average) ([3]; 50 mg/kg po, day 11) was 194 mm³ and the Tumor volume (group average) ([3]; 50 mg/kg po, day 14) was 187 mm³. The Tumor volume (group average) ([3]; 50 mg/kg po, day 16) was 188 mm³, the Tumor volume (group average) ([3]; 50 mg/kg po, day 18) was 202 mm³ and the Tumor volume (group average) ([3]; 100 mg/kg po, day 0) was 150 mm³. The Tumor volume (group average) ([3]; 100 mg/kg po, day 2) was 132 mm³, the Tumor volume (group average) ([3]; 100 mg/kg po, day 4) was 142 mm³ and the Tumor volume (group average) ([3]; 100 mg/kg po, day 7) was 124 mm³. It also gave a Tumor volume (group average) ([3]; 100 mg/kg po, day 9) of 140 mm³, a Tumor volume (group average) ([3]; 100 mg/kg po, day 11) of 150 mm³ and a Tumor volume (group average) ([3]; 100 mg/kg po, day 14) of 144 mm³. The Tumor volume (group average) ([3]; 100 mg/kg po, day 16) was 145 mm³, the Tumor volume (group average) ([3]; 100 mg/kg po, day 18) was 154 mm³ and the Tumor volume (group average) ([3]; 200 mg/kg po, day 0) was 149 mm³. For the same molecule, the Tumor volume (group average) ([3]; 200 mg/kg po, day 2) was 128 mm³, the Tumor volume (group average) ([3]; 200 mg/kg po, day 4) was 125 mm³ and the Tumor volume (group average) ([3]; 200 mg/kg po, day 7) was 100 mm³. It also gave a Tumor volume (group average) ([3]; 200 mg/kg po, day 9) of 114 mm³, a Tumor volume (group average) ([3]; 200 mg/kg po, day 11) of 122 mm³ and a Tumor volume (group average) ([3]; 200 mg/kg po, day 14) of 113 mm³. The Tumor volume (group average) ([3]; 200 mg/kg po, day 16) was 127 mm³, the Tumor volume (group average) ([3]; 200 mg/kg po, day 18) was 130 mm³ and the “Dose effectively inhibiting tumor growth” value ([3]; once daily oral gavage, 18 days) was at least 25 mg/kg. It also gave an inhibition at 0.04 µM [4] of 103%, an inhibition at 0.04 µM [5] of 39.6% and an inhibition at 0.04 µM [6] of 8%. The inhibition at 0.04 µM [7] was 5%, the inhibition at 0.04 µM [8] was 4.2% and the inhibition at 0.04 µM [9] was 2.5%.
